Experimental data reported in patent US11319273B2, “Lipophilic curcumin analogs and methods of inhibiting HIV-1, treating latent HIV in the brain, and preventing HIV-mediated cognitive decline and HIV dementia” (Howard University, priority 2012, dated 2022).

Key:
MAPK1 = assay: Effect on MAPK1 mRNA level in CEM cells; assay type: cell-based; conditions: CEM cells (FIG. 4)
Text: (§1) Along with brain-derived neurotrophic factor (“BDNF”), protein kinase B (“AKT”), and mitogen-activated protein kinase 1 (“MAPK1”) (i.e., ERK1/2) genes are known to critically regulate cell survival and growth of neurons during development and the survival and function of adult neurons, as well as modulate synaptic transmission and plasticity. This example compares activities of natural curcumin and curcumin analog (1E,4E)-1,5-bis(4-hydroxy-3-methoxyphenyl)penta-1,4-dien-3-one on AKT, MAPK1 and […]. The analog was predicted to be more biologically soluble, absorbable, and more resistant to degradation than the natural curcumin. It has already been shown that natural curcumin increases the expression of BDNF in the hippocampus of rats. It was believed that, compared to natural curcumin, the analog would result in greater increase in the activities of these three neuroprotective genes as proof-of-principle of neuroprotection from latent HIV brain disease. The analysis was conducted on CEM cell lines, which are cells that are susceptible to HIV infection.

BDNF = assay: Effect on BDNF mRNA level in CEM cells; assay type: cell-based; conditions: CEM cells (FIG. 4)
Text: as §1

[1] = system: vesicular stomatitus virus glycoprotein (VSVG) pseudotyped HIV-1 pNL 4-3 virus expressing luciferase (VSVG-HIV-1 Luc); assay: microbe, parasite or virus in culture; conditions: Human immunodeficiency virus 1, T-cell, 48 h, read-out: anti-HIV activity IC50
[2] = system: vesicular stomatitus virus glycoprotein (VSVG) pseudotyped HIV-1 pNL 4-3 virus expressing luciferase (VSVG-HIV-1 Luc)
[3] = Lipophilicity (octanol-water partition coefficient); assay type: physicochemical
Text: As used herein, lipophilicity refers to the affinity of a compound for a lipophilic environment. By one approach, lipophilicity can be determined using an octanol-water partition coefficient (Kow), which represents the ratio of the solubility of a compound in octanol (a non-polar solvent) to its solubility in water (a polar solvent). The higher the Kow, the more non-polar the compound. Log Kow values are generally inversely related to aqueous solubility and directly proportional to molecular weight. For purposes herein, lipophilicity values range between 0 to 10 and a value of at least 2.5 indicates good lipophilicity. A log Kow value less than 0 is considered hydrophilic.

AKT1 = assay: Effect on AKT1 mRNA level in CEM cells; assay type: cell-based; conditions: CEM cells (FIG. 4)
Text: as §1

| SMILES | MAPK1 mRNA level (MAPK1) | BDNF mRNA level (BDNF) | IC50 [1] | inhibition of HIV-1 virus in vitro [2] | therapeutic index (IC50:cytotoxicity ratio) as compared to curcumin [2] | lipophilicity [3] | AKT1 mRNA level (AKT1) |
| --- | --- | --- | --- | --- | --- | --- | --- |
| COc1cc(/C=C/C(=O)/C=C/c2ccc(O)c(OC)c2)ccc1O [curcumin analog, (1E,4E)-1,5-bis(4-hydroxy-3-methoxyphenyl)penta-1,4-dien-3-one] | significantly increased | significantly increased | 8 nM | able to inhibit HIV at the nanomolar level | wider therapeutic index | very lipophilic | significantly increased |
| COc1cc(/C=C/C(=O)CC(=O)/C=C/c2ccc(O)c(OC)c2)ccc1O [Natural curcumin, Curcumin] | slight increase | decrease | – | – | – | – | slight increase |
